Test results: patent US20260294770A1, “FORMULATIONS OF NARINGENIN” (DEBUT BIOTECHNOLOGY, INC., priority 2023, published 2026)

Legend:
[1] = DPPH antioxidant activity assay (organic medium); assay type: biochemical; settings: for % Radical Inhibition: organic medium
Source text: The 2,2-diphenyl-1-picrylhydrazyl (DPPH) antioxidant assay is designed to evaluate the antioxidant activity of compositions comprising naringenin in an organic medium.
2,2-diphenyl-1-picrylhydrazyl (DPPH) is a stable free radical used to evaluate free radical scavenging capacity of a material. In the presence of an antioxidant DPPH is reduced, resulting in the formation of a colorless solution. Reduction of absorbance at 517 nm is standardized to solvent control as an indication of DPPH scavenging.

HAL = experiment: Upregulation of gene expression and/or activity, 1% naringenin: HAL
Source text: (§1) In certain embodiments, administration of a composition comprising naringenin leads to up-regulation of LCE5A, KRT77, ALOXE3, KRT1, HPGD, MUCL1, CASP14, WFDC12, KRT10, DNASE1L2, IL37, SERPINB12, HAL, UPK1A, CALML5, LCE2B, and/or MIR205. In certain embodiments, administration of a composition comprising naringenin leads to down-regulation of CCL11, CSF2, IL23A, IL11, BMP6, IL13RA2, C2CD4A, NR4A2, C2CD4B, FGF2, FARP4, GDF15, THBS1, HSPA1A, PTGS2, and/or DKK1. Tables 10 and 11 provide data for upregulation and downregulation respectively of certain genes after administration of compositions comprising 1% naringenin.

glutathione = settings: consumed orally; cited from earlier work
[2] = cited from earlier work
IL13RA2 = experiment: Downregulation of gene expression and/or activity, 1% naringenin: IL13RA2
Source text: as §1
Interleukin 13 receptor subunit alpha 2 (IL13RA2) plays a role in recovery after stressor caused inflammatory response. In certain embodiments, downregulation of IL13RA2 leads to improved recovery after inflammation caused by stressors. In certain embodiments, the administration of composition comprising naringenin results in at least about 5 to about 15-fold downregulation of expression and/or activity of IL13RA2. In certain embodiments, the administration of composition comprising naringenin results in at least about ten (10) fold downregulation of expression and/or activity of IL13RA2.

[3] = ABTS antioxidant assay (aqueous); assay type: biochemical; settings: for % Radical Inhibition: aqueous
Source text: The 2,2′-Azinobis [3-ethylbenzothiazoline-6-sulfonic acid]-diammonium salt (ABTS) antioxidant assay is designed to evaluate the antioxidant activity of compositions comprising naringenin in an aqueous medium. ABTS+ solution is generated as a free radical and used to measure relative ability of a compound to scavenge free radicals. Reduction of the absorbance at 734 nm was standardized to solvent control as an indication of ABTS+ scavenging.

CSF2 = experiment: Downregulation of gene expression and/or activity, 1% naringenin: CSF2
Source text: as §1
Granulocyte-macrophage colony-stimulating factor (CSF2) plays a role in inflammation and arthritis. In certain embodiments of the invention, downregulation of CSF2 leads to an anti-inflammatory activity and/or anti-arthritic activity. In certain embodiments, the administration of composition comprising naringenin results in at least about 10 to about 20-fold downregulation of expression and/or activity of CSF2. In certain embodiments, the administration of composition comprising naringenin results in at least about fifteen (15) fold downregulation of expression and/or activity of CSF2.

TNFα = TNFα concentration in stimulated (stressed) normal human epidermal keratinocytes (ELISA); assay type: cell-based; settings: for TNFα concentration: LPS + Poly:IC stressed NHEK, stimulated control 202.6
Source text: Normal Human Epidermal Keratinocytes (NHEK) were stressed with a cocktail of lipopolysaccharide (LPS) and Polyinosinic-polycytidylic acid sodium salt (Poly:IC), external aggressors capable of inducing an inflammatory response. Stressed cells were subsequently treated with test articles and reduction in inflammatory markers was measuring by ELISA. Tables 19 and 20, provided below, discloses data for TNFα and IL-6 concentrations, respectively, in stressed normal human epidermal keratinocytes.

HPGD = experiment: Upregulation of gene expression and/or activity, 1% naringenin: HPGD
Source text: as §1
Hydroxyprostaglandin dehydrogenase (HPGD) has an anti-inflammatory function. In particular, it is involved in degradation of molecules that lead to inflammatory signaling. For example, HPGD is involved in degradation of prostaglandin, which is involved in inflammatory signaling pathway. In certain embodiments, upregulation of expression and/or activity of HPGD leads to an anti-inflammatory effect. In certain embodiments, upregulation of HPGD leads to increase in degradation of signaling molecules that are involved in inflammation. Thus, the upregulation of HPGD leads to reduced inflammation. In certain embodiments, the administration of composition comprising naringenin results in at least about 5 to about 20-fold upregulation of expression and/or activity of HPGD. […]

GDF15 = experiment: Downregulation of gene expression and/or activity, 1% naringenin: GDF15
Source text: as §1
(§2) Growth differentiation factor 15 (GDF15) plays a role in the inflammatory response. In certain embodiments, downregulation of GDF15 results in reduction in inflammation. In certain embodiments, the administration of composition comprising naringenin results in at least about 2 to about 10-fold downregulation of expression and/or activity of GDF15. In certain embodiments, the administration of composition comprising naringenin results in at least about five (5) fold downregulation of expression and/or activity of GDF15.

C2CD4B = experiment: Downregulation of gene expression and/or activity, 1% naringenin: C2CD4B
Source text: as §1
as §2, with “C2 calcium dependent domain containing 4B (C2CD4B)” for “Growth differentiation factor 15 (GDF15)”, “C2CD4B” for “GDF15”, “5” for “2”, “15-fold” for “10-fold”, “C2CD4B.” for “GDF15.”, “ten (10)” for “five (5)”

For `O=C1C[C@@H](c2ccc(O)cc2)Oc2cc(O)cc(O)c21` [naringenin, (2S)-5,7-Dihydroxy-2-(4-hydroxyphenyl)-2,3-dihydro-4H-1-benzopyran-4-one], the “% Radical Inhibition” value ([1]; 0.50 % w/w naringenin) was 18.82%, the “% Radical Inhibition” value ([1]; 1.00 % w/w naringenin) was 28.44% and the “% Radical Inhibition” value ([1]; 2.00 % w/w naringenin) was 46.82%. The “Lowest concentration with antioxidant activity” value ([1]; organic solvent systems) was ≤ 0.2 % w/w, the “Fold-increase in expression and/or activity of HAL” value (HAL) was 8 fold and the Glutathione (glutathione) was “increase”. The “Safety on oral ingestion” value [2] was “generally considered safe for oral ingestion”, the “fold downregulation in expression and/or activity of IL13RA2” value (IL13RA2) was ~10 fold and the “Fold-increase (downregulation table) IL13RA2” value (IL13RA2; negative = downregulation) was −10 fold. For the same compound, the “% Radical Inhibition” value ([3]; 0.0045 % w/w naringenin) was 47.50%, the “% Radical Inhibition” value ([3]; 0.009 % w/w naringenin) was 55.45% and the “% Radical Inhibition” value ([3]; 0.018 % w/w naringenin) was 65.39%. The “IC50 antioxidant activity (ABTS)” value ([3]; aqueous solvent system, calculated) was 0.0058 % w/w, the “Lowest concentration with antioxidant activity” value ([3]; aqueous systems) was ≤ 0.001 % w/w and the “fold downregulation in expression and/or activity of CSF2” value (CSF2) was ~18 fold. The TNFα concentration (TNFα; 0.0001% naringenin, p-value 6.99E−07) was 94.3 pg/mL, the TNFα concentration (TNFα; 0.0045% naringenin, p-value 0.002047) was 43.8 pg/mL and the TNFα concentration (TNFα; 0.007% naringenin, p-value 0.002961) was 70.3 pg/mL. For the same compound, the TNFα concentration (TNFα; 0.01% naringenin, p-value 0.004838) was 104.2 pg/mL, the inhibition at 0.0001 % (TNFα; Homo sapiens, NHEK, 0.0001% naringenin, vs stimulated control, p-value 6.99E−07, read-out: TNFα % Reduction vs Treated) was 53.4% and the inhibition at 0.0045 % (TNFα; Homo sapiens, NHEK, 0.0045% naringenin, vs stimulated control, p-value 0.002047, read-out: TNFα % Reduction vs Treated) was 78.4%. For the same compound, the inhibition at 0.007 % (TNFα; Homo sapiens, NHEK, 0.007% naringenin, vs stimulated control, p-value 0.002961, read-out: TNFα % Reduction vs Treated) was 65.3%, the inhibition at 0.01 % (TNFα; Homo sapiens, NHEK, 0.01% naringenin, vs stimulated control, p-value 0.004838, read-out: TNFα % Reduction vs Treated) was 48.6% and the “Reduction of TNFα (in words)” value (TNFα; stressed keratinocytes) was “to non-stressed levels”. For the same compound, the “Fold-increase in expression and/or activity of HPGD” value (HPGD) was ~10 fold, the “fold downregulation in expression and/or activity of GDF15” value (GDF15) was ~6 fold and the “Fold-increase (downregulation table) GDF15” value (GDF15; negative = downregulation) was −6 fold. The “fold downregulation in expression and/or activity of C2CD4B” value (C2CD4B) was ~8 fold and the “Fold-increase (downregulation table) C2CD4B” value (C2CD4B; negative = downregulation) was −8 fold.
